Assay results as given in patent US9186361B2, “Compounds and compositions for the treatment of parasitic diseases” (Novartis AG, priority 2013, dated 2015).
pEC50: −log10 of the molar value.

Columns and labels:
Format in all cases: cell-based
[1] = system: Leishmania donovani axenic amastigote parasites; test: Assay for Leishmania proliferation in vitro (axenic amastigotes, Cell TiterGlo); details: 48 h, 2 day incubation, read-out: L. donovani amastigotes EC50
Description: Leishmania donovani axenic amastigote parasites are grown at 37° C., 5% CO2 in media made of RPMI 1640, 4 mM L-glutamine, 20% heat inactivated FBS, 100 units/ml of penicillin and 100 μg/ml of streptomycin, 23 μM Folic Acid, 100 μM Adenosine, 22 mM D-glucose, 25 mM MES. The pH of media is adjusted to 5.5 at 37° C. using HCl. 20 μL of media is first dispensed into 384 well plates and […] of the compounds of invention in DMSO are added to the plate wells. At the same time control compounds and DMSO are added to plates to serve as the positive and negative controls, respectively. 40 μL of parasite culture (9600 parasites) are then added to the plate wells. The plates are then placed into incubators. After 2 day incubation, 20 μL of Cell TiterGlo (Promega) is added to the plate wells. The luminescence signal of each well is measured using the Envision reader (Perkin Elmer). The percentage inhibition of 50%, EC50, is calculated for each of the compounds.

[2] = system: L. donovani HU3 strain in mouse peritoneal macrophages; test: Proliferation of L. donovani in mouse peritoneal macrophages (SybrGreen, high-content imaging); details: Leishmania donovani, Peritoneal macrophage, 120 h; infected mouse peritoneal macrophages, 5 days; read-out: L. donavani Macrophage EC50
Excerpt: The activity of a compound according to the present invention for inhibition of parasitemai can be assessed by the parasite proliferation assay. The assay measures the increase in the parasite number in the assayed plate well using a DNA intercalating dye, SYBR Green I® dye (INVITROGEN) to stain Leishmania cell nuclei. It is understood that the assays illustrate the invention without in any way limiting the scope of the invention.
L. donovani HU3 strain is propagated by infecting BALBc mice through tail vein injection with 10^7 Leishmania parasites. Infected mice are allowed to develop infection during 9-11 weeks post-infection. During this time, the parasites accumulate in the infected mouse spleens to large numbers, and the infected mice serve as the source of parasites for the in vitro measurement of compound efficacies. To assay a compound for anti-leishmanial activity, peritoneal macrophages isolated from non-infected BALBc mice are seeded into 384-well plates at density 2×10^4 macrophages per well in 25 mL of medium (RPMI1640, 10% fetal serum albumin, 10 mM HEPES, 1 mM sodium pyruvate, 1% Pen/Strep). Subsequently, the seeded plates are placed into an incubator set to maintain 37° C. temperature and atmosphere with 5% CO2. The next day, Leishmania parasites are isolated from the spleens of mice infected for 9-11 weeks and 4×10^5 isolated parasites in […] of the above media are added to each plate well. Plates are then returned into incubators and infection is allowed to proceed for 24 hours. After the infection of macrophages is completed, […] of compounds of the invention in the above medium, which also contains 5% DMSO, are added to plate wells containing infected macrophages. At the same time control compounds (miltefosine and amphotericin B) and DMSO are added to plates to serve as the positive and negative controls, respectively. After the compound addition, the plates are returned into incubator and cells infected with parasites are cultured for 5 days. At the end of cultivation, […] of 8% paraformaldehyde is added to plate wells and incubated for 15 min at room temperature. Following the incubation, the paraformaldehyde from plate wells is aspirated, and […] of PBS containing 0.2% Triton X-100 is added to wells. After 15 min incubation, the solution is aspirated from wells again, and replaced with SybrGreen Dye solution in PBS (1:125,000 dilution). Infected cells are imaged with Evotec Opera high-content microscope, and the number of parasites in well is determined by counting parasite nuclei visualized by staining with SybrGreen dye. The percentage inhibition of 50%, EC50, is calculated for each compound.
The inhibitory efficacy of the compounds of the invention against proliferation of L. donovani in mouse peritoneal macrophages is provided in Table I.

[3] = system: Trypanosoma cruzi amastigotes cultured in 3T3 fibroblast cells; test: Assay for proliferation of kinetoplastid parasite Trypanosoma cruzi (beta-galactosidase/CPRG readout); details: NIH3T3, 144 h, Tulahuen strain in 3T3 cells, 6 day incubation, read-out: T cruzi EC50
Excerpt: Compounds of the invention can be assayed to measure their capacity to inhibit proliferation of kinetoplastid parasite Trypanosoma cruzi. The screening procedure is for identifying compounds with inhibitor activity against Trypanosoma cruzi amastigotes cultured in 3T3 fibroblast cells. The assay is done using the mammalian stage (amastigotes) of T. cruzi that replicates in the intracellular space of host cells. The host cells are initially infected with the culture-derived trypomastigotes that rapidly invade and then divide as amastigotes. The protocol uses the Tulahuen strain of T. cruzi that has been engineered to express the E. coli beta-galactosidase gene (Lac-Z) (Antimicr. Agents Chemoth. 40:2592, 1996). This allows for a colorimetric readout by using the substrate CPRG and an absorbance plate reader.
3T3 fibroblast cells are re-suspended in RPMI-1640 medium without phenol red medium supplemented with 10% FBS (heat inactivated), 100 μg/ml penicillin, and 100 μg/ml streptomycin. Forty μL of suspension (1,000 cells) is dispensed into 384-well plates and incubated overnight at 37° C. temperature and in atmosphere containing 5% CO2. The following day, 100 nL of compounds of the invention in DMSO are added to plate wells containing 3T3 cells. At the same time control compounds (benznidazole and nifurtimox) and DMSO are added to plates to serve as the positive and negative controls, respectively. After that, 10 μL of media containing 10,000 T. cruzi trypomastigotes are added to each plate well and plates are placed back into incubators. After 6 day incubation, 10 μL of reagent solution (0.6 mM CPRG, 0.6% NP-40 in PBS) is added to plates and incubated at room temperature for 2 hours. Absorbance is then measured on SpectraMax Gemini fluorimeter to determine relative number of T. cruzi cells present in each plate well. The percentage inhibition of 50%, EC50, is calculated for each compound.

Compound	pEC50 [1]	pEC50 [2]	pEC50 [3]
Cc1nc(C)c(C(=O)Nc2cnc3nc(-c4cc(NC(=O)c5ccco5)ccc4Cl)[nH]c3c2)s1 [Example 5, N-{2-[2-chloro-5-(furan-2-amido)phenyl]-1H-imidazo[4,5-b]pyridin-6-yl}-2,4-dimethyl-1,3-thiazole-5-carboxamide]	6.24	< 4.30	5.73
CC(C)OC(=O)Nc1cnc2nc(-c3cc(NC(=O)c4ccco4)ccc3Cl)n(C(=O)OC(C)C)c2c1 [Example 7, propan-2-yl 2-[2-chloro-5-(furan-2-amido)phenyl]-6-{[(propan-2-yloxy)carbonyl]amino}-1H-imidazo[4,5-b]pyridine-1-carboxylate]	6.19	5.87	6.83
O=C(Nc1ccc(Cl)c(-c2nc3ncc([N+](=O)[O-])cc3[nH]2)c1)c1ccco1 [Example 8, N-(4-chloro-3-{6-nitro-1H-imidazo[4,5-b]pyridin-2-yl}phenyl)furan-2-carboxamide]	6.02	4.91	5.99
CC(C)C(=O)Nc1cnc2nc(-c3cc(NC(=O)c4ccco4)ccc3Cl)[nH]c2c1 [Example 10, N-{4-chloro-3-[6-(2-methylpropanamido)-1H-imidazo[4,5-b]pyridin-2-yl]phenyl}furan-2-carboxamide]	5.93	5.64	5.43
CNc1cnc2nc(-c3cc(NC(=O)c4ccco4)ccc3Cl)[nH]c2c1 [Example 11, N-{4-chloro-3-[6-(methylamino)-1H-imidazo[4,5-b]pyridin-2-yl]phenyl}furan-2-carboxamide]	5.74	4.78	5.90
O=C(Nc1ccc(Cl)c(-c2nc3ncc(NC(=O)N4CCCC4)cc3[nH]2)c1)c1ccco1 [Example 12, N-{2-[2-chloro-5-(furan-2-amido)phenyl]-1H-imidazo[4,5-b]pyridin-6-yl}pyrrolidine-1-carboxamide]	5.63	< 4.58	4.96
CC(C)CC(=O)Nc1cnc2nc(-c3cc(NC(=O)c4ccco4)ccc3Cl)[nH]c2c1 [Example 14, N-{4-chloro-3-[6-(3-methylbutanamido)-1H-imidazo[4,5-b]pyridin-2-yl]phenyl}furan-2-carboxamide]	5.35	5.48	5.48
CC(C)(C)OC(=O)NCCOC(=O)Nc1cnc2nc(-c3cc(NC(=O)c4ccco4)ccc3Cl)[nH]c2c1 [Example 16, tert-butyl N-{2-[({2-[2-chloro-5-(furan-2-amido)phenyl]-1H-imidazo[4,5-b]pyridin-6-yl}carbamoyl)oxy]ethyl}carbamate]	5.24	5.00	5.40
COCCC(=O)Nc1cnc2nc(-c3cc(NC(=O)c4ccco4)ccc3Cl)[nH]c2c1 [Example 19, N-{4-chloro-3-[6-(3-methoxypropanamido)-1H-imidazo[4,5-b]pyridin-2-yl]phenyl}furan-2-carboxamide]	4.88	4.59	< 4.70
CC(C)NC(=O)Nc1cnc2nc(-c3cc(NC(=O)c4ccco4)ccc3Cl)[nH]c2c1 [Example 24, N-[4-chloro-3-(6-{[(propan-2-yl)carbamoyl]amino}-1H-imidazo[4,5-b]pyridin-2-yl)phenyl]furan-2-carboxamide]	4.63	< 4.41	< 4.70
O=C(CCO)Nc1cnc2nc(-c3cc(NC(=O)c4ccco4)ccc3Cl)[nH]c2c1 [Example 25, N-{4-chloro-3-[6-(3-hydroxypropanamido)-1H-imidazo[4,5-b]pyridin-2-yl]phenyl}furan-2-carboxamide]	4.63	< 4.30	< 4.70
O=C(Nc1ccc(Cl)c(-c2nc3ncc(NCc4cccnc4O)cc3[nH]2)c1)c1ccco1 [Example 30]	< 4.60	< 4.30	< 4.70
NCC(=O)Nc1cnc2nc(-c3cc(NC(=O)c4ccco4)ccc3Cl)[nH]c2c1 [Example 33, N-{3-[6-(2-aminoacetamido)-1H-imidazo[4,5-b]pyridin-2-yl]-4-chlorophenyl}furan-2-carboxamide]	< 4.60	< 4.30	4.72
CC(C)S(=O)(=O)Nc1cnc2nc(-c3cc(NC(=O)c4ccc(C#N)o4)ccc3Cl)[nH]c2c1 [Example 60, N-{4-chloro-3-[6-(propane-2-sulfonamido)-1H-imidazo[4,5-b]pyridin-2-yl]phenyl}-5-cyanofuran-2-carboxamide]	5.61	4.75	–
NC(=O)C1(C(=O)Nc2cnc3nc(-c4cc(NC(=O)c5ccco5)ccc4Cl)[nH]c3c2)CC1 [Example 64, 1-N-{2-[2-chloro-5-(furan-2-amido)phenyl]-1H-imidazo[4,5-b]pyridin-6-yl}cyclopropane-1,1-dicarboxamide]	4.68	< 4.30	–
NCCCNc1cnc2nc(-c3cc(NC(=O)c4ccc(F)o4)ccc3Cl)[nH]c2c1 [Example 69, N-(3-{6-[(3-aminopropyl)amino]-1H-imidazo[4,5-b]pyridin-2-yl}-4-chlorophenyl)-5-fluorofuran-2-carboxamide]	< 4.60	< 4.30	–
O=CNc1cnc2nc(-c3cc(NC(=O)c4ccc(F)o4)ccc3Cl)[nH]c2c1 [Example 74, N-(4-chloro-3-{6-formamido-1H-imidazo[4,5-b]pyridin-2-yl}phenyl)-5-fluorofuran-2-carboxamide]	4.97	< 4.30	–
CC(C)OC(=O)Nc1cnc2nc(-c3cc(NC(=O)N4CCCC4)ccc3Cl)oc2c1 [Example 75, propan-2-yl N-(2-{2-chloro-5-[(pyrrolidin-1-yl)carbonylamino]phenyl}-[1,3]oxazolo[4,5-b]pyridin-6-yl)carbamate]	6.88	6.78	–
CC(C)OC(=O)Nc1cnc2nc(-c3cc(NC(=O)c4ccco4)ccc3Cl)oc2c1 [Example 76, propan-2-yl N-(2-{2-chloro-5-[(furan-2-yl)carbonylamino]phenyl}-[1,3]oxazolo[4,5-b]pyridin-6-yl)carbamate]	6.59	6.35	–
CC(C)S(=O)(=O)Nc1cnc2nc(-c3cccc(NC(=O)c4ccc(F)o4)c3)[nH]c2c1 [Example 77, 5-fluoro-N-{3-[6-(propane-2-sulfonamido)-1H-imidazo[4,5-b]pyridin-2-yl]phenyl}furan-2-carboxamide]	< 4.60	4.64	–
